Experimental data published in patent US7309708B2, “Hepatitis C virus inhibitors” (priority 2003, dated 2007).

Legend:
[1] = tested on: HCV replicon (strain 1b) in Huh7 cells; experiment: microbe, parasite or virus in culture; type: cell-based; details: Hepatitis C virus, Huh-7, 96 h; Huh7 cells expressing HCV replicon, 4 days; activity range class
From the text: This system enabled us to evaluate the effects of our HCV Protease compounds on HCV RNA replication. Briefly, using the HCV strain 1b sequence described in the Lohmann paper (Assession number: AJ238799), an HCV cDNA was generated encoding the 5′ internal ribosome entry site (IRES), the neomycin resistance gene, the EMCV (encephalomyocarditis virus)-IRES and the HCV nonstructural proteins, NS3-NS5B, and 3′ non-translated region (NTR). In vitro transcripts of the cDNA were transfected into the human hepatoma cell line, Huh7. […] Resulting cell lines were characterized for positive and negative strand RNA production and protein production over time.
Huh7 cells, constitutively expressing the HCV replicon, were grown in Dulbecco's Modified Eagle Media (DMEM) containing 10% Fetal calf serum (FCS) and 1 mg/ml G418 (Gibco-BRL). Cells were seeded the night before (1.5×10^4 cells/well) in 96-well tissue-culture sterile plates. Compound and no compound controls were prepared in DMEM containing 4% FCS, 1:100 Penicillin/Streptomysin, 1:100 L-glutamine and 5% DMSO in the dilution plate (0.5% DMSO final concentration in the assay). Compound/DMSO mixes were added to the cells and incubated for 4 days at 37° C. After 4 days, plates were rinsed thoroughly with Phosphate-Buffered Saline (PBS) (3 times 150 μl). The cells were lysed with 25 μl of a lysis assay reagent containing the FRET peptide (RET S1, as described for the in vitro enzyme assay). The lysis assay reagent was made from 5× cell Luciferase cell culture lysis reagent (Promega #E153A) diluted to 1× with distilled water, NaCl added to 150 mM final, the FRET peptide diluted to 10 μM final from a 2 mM stock in 100% DMSO. The plate was then placed into the Cytofluor 4000 instrument which had been set to 340 nm excitation/490 nm emission, automatic mode for 21 cycles and the plate read in a kinetic mode. EC50 determinations were carried out as described for the IC50 determinations.
The replicon construct described for our FRET assay was modified by replacing the resistance gene neomycin with the Blasticidin-resistance gene fused to the N-terminus of the humanized form of Renilla luciferase (restriction sites Asc1/Pme1 used for the subcloning). […] The luciferase reporter assay was set up by seeding huh7 cells the night before at a density of 2×10^6 cells per T75 flask. Cells were washed the next day with 7.5 ml Opti-MEM. Following the Invitrogen protocol, 40 μl DMRIE-C was vortexed with 5 ml Opti-MEM before adding 5 μg HCV reporter replicon RNA. The mix was added to the washed huh7 cells and left for 4 h at 37° C. In the mean time, serial compound dilutions and no compound controls were prepared in DMEM containing 10% FCS and 5% DMSO in the dilution plate (0.5% DMSO final concentration in the assay). Compound/DMSO mixes were added to each well of a 24-well plate. After 4 h, the transfection mix was aspirated, and cells washed with 5 ml of Opti-MEM before trypsinization. Trypsinized cells were resuspended in 10% DMEM and seeded at 2×10^4 cells/well in the 24-well plates containing compound or no compound controls. Plates were incubated for 4 days. After 4 days, media was removed and cells washed with PBS. 100 μl 1× Renilla Luciferase Lysis Buffer (Promega) was immediately added to each well and the plates either frozen at −80° C. for later analysis, or assayed after 15 min of lysis. Lysate (40 μl) from each well was transferred to a 96-well black plate (clear bottom) followed by 200 μl 1× Renilla Luciferase assay substrate. Plates were read immediately on a Packard TopCount NXT using a luminescence program.
The values were graphed and analyzed using XLFit to obtain the EC50 value.

[2] = target: T1, HCV NS3/4A protease complex (BMS strain) (UniProt P27958); experiment: Recombinant HCV NS3/4A protease complex FRET peptide assay (BMS strain); type: biochemical, Hepatitis C virus (genotype 1a; details: read-out: IC50 (uuM); NS3/4A BMS strain; activity range class
T1 construct: for H77 and J4L6S; fused on or other part: Probably a three-lysine solubilising tail at the C-terminus of NS4A and a His tag from pET21b (Ni-NTA purification); These are printed for the H77 and J4L6S constructs and only inferred for BMS
From the text: Serum from an HCV-infected patient was obtained from Dr. T. Wright, San Francisco Hospital. An engineered full-length cDNA (compliment deoxyribonucleic acid) template of the HCV genome (BMS strain) was constructed from DNA fragments obtained by reverse transcription-PCR (RT-PCR) of serum RNA (ribonucleic acid) and using primers selected on the basis of homology between other genotype 1a strains.
The H77 and J4L6S strains were used for production of recombinant NS3/4A protease complexes. […] Briefly, a three-lysine solubilizing tail was added at the 3′-end of the NS4A coding region. […] Briefly, the NS3/4A protease complex expression was induced with 0.5 millimolar (mM) Isopropyl β-D-1-thiogalactopyranoside (IPTG) for 22 hours (h) at 20° C. […] The cells were resuspended in lysis buffer (10 mL/g) consisting of 25 mM N-(2-Hydroxyethyl)Piperazine-N′-(2-Ethane Sulfonic acid) (HEPES), pH 7.5, 20% glycerol, 500 mM Sodium Chloride (NaCl), 0.5% Triton X-100, 1 microgram/milliliter (“μg/mL”) lysozyme, 5 mM Magnesium Chloride (MgCl2), 1 gg/ml DnaseI, 5 mM β-Mercaptoethanol (βME), Protease inhibitor—Ethylenediamine Tetraacetic acid (EDTA) free (Roche), homogenized and incubated for 20 minutes (min) at 4° C. The homogenate was sonicated and clarified by ultra-centrifugation at 235000 g for 1 h at 4° C. Imidazole was added to the supernatant to a final concentration of 15 mM and the pH adjusted to 8.0. The crude protein extract was loaded on a Nickel-Nitrilotriacetic acid (Ni-NTA) column pre-equilibrated with buffer B (25 mM HEPES, pH 8.0, 20% glycerol, 500 mM NaCl, 0.5% Triton X-100, 15 mM imidazole, 5 mM βME). The sample was loaded at a flow rate of 1 mL/min. The column was washed with 15 column volumes of buffer C (same as buffer B except with 0.2% Triton X-100). The protein was eluted with 5 column volumes of buffer D (same as buffer C except with 200 mM Imidazole).
NS3/4A protease complex-containing fractions were pooled and loaded on a desalting column Superdex-S200 pre-equilibrated with buffer D (25 mM HEPES, pH 7.5, 20% glycerol, 300 mM NaCl, 0.2% Triton X-100, 10 mM βME). Sample was loaded at a flow rate of 1 mL/min. NS3/4A protease complex-containing fractions were pooled and concentrated to approximately 0.5 mg/ml.
The enzyme was stored at −80° C., thawed on ice and diluted prior to use in assay buffer. […] The sequence of this peptide is loosely based on the NS4A/NS4B natural cleavage site for the HCV NS3 protease except there is an ester linkage rather than an amide bond at the cleavage site. The peptide substrate was incubated with one of the three recombinant NS3/4A protease complexes, in the absence or presence of a compound of the present invention, and the formation of fluorescent reaction product was followed in real time using a Cytofluor Series 4000.
Assay buffer: 50 mM HEPES, pH 7.5; 0.15 M NaCl; 0.1% Triton; 15% Glycerol; 10 mM βME. Substrate: 2 μM final concentration (from a 2 mM stock solution in DMSO stored at −20° C.). HCV NS3/4A protease type 1a (1b), 2-3 nM final concentration (from a 5 μM stock solution in 25 mM HEPES, pH 7.5, 20% glycerol, 300 mM NaCl, 0.2% Triton-X100, 10 mM βME).
The assay was performed in a 96-well polystyrene black plate from Falcon. Each well contained 25 μl NS3/4A protease complex in assay buffer, 50 μl of a compound of the present invention in 10% DMSO/assay buffer and 25 μl substrate in assay buffer. A control (no compound) was also prepared on the same assay plate.

T1 sequence (P27958 1027-1657, one chain of several): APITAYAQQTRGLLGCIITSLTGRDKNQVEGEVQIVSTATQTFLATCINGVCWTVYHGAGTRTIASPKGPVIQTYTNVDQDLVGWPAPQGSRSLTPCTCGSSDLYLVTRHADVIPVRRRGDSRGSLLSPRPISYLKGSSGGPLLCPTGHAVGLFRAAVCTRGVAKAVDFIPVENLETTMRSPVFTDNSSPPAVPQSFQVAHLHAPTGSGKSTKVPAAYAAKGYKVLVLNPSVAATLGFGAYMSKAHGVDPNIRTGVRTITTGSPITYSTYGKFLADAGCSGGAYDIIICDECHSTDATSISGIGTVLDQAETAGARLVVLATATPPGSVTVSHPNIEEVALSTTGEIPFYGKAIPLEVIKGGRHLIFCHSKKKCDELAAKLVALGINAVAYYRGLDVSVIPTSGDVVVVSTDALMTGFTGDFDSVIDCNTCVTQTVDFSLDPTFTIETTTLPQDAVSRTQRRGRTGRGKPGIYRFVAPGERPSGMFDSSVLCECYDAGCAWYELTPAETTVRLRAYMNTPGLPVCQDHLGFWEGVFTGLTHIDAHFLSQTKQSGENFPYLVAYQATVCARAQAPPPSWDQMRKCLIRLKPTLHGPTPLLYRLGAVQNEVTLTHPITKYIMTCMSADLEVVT

| Structure (SMILES) | EC50 [1] [nM] | IC50 [2] [nM] |
| --- | --- | --- |
| C=C[C@@H]1C[C@]1(NC(=O)[C@@H]1C[C@@H](Oc2nccc3cc(OC)ccc23)CN1C(=O)[C@@H](NC(=O)OC(C)(C)C)C(C)(C)C)C(=O)NS(=O)(=O)c1nnc(NC(C)=O)s1 [Compound 1011] | 1000 to 10000 | < 100 |
| C=C[C@@H]1C[C@]1(NC(=O)[C@@H]1C[C@@H](Oc2nccc3cc(OC)ccc23)CN1C(=O)[C@@H](NC(=O)OC(C)(C)C)C(C)(C)C)C(=O)NS(=O)(=O)c1cc(Cl)c(Cl)s1 [Compound 1001] | 1000 to 10000 | < 100 |
| C=C[C@@H]1C[C@]1(NC(=O)[C@@H]1C[C@@H](Oc2nccc3cc(OC)ccc23)CN1C(=O)[C@@H](NC(=O)OC(C)(C)C)C(C)(C)C)C(=O)NS(=O)(=O)c1sc(C)nc1C [Compound 1003] | 100 to 1000 | 100 to 1000 |
| C=C[C@@H]1C[C@]1(NC(=O)[C@@H]1C[C@@H](Oc2nccc3cc(OC)ccc23)CN1C(=O)[C@@H](NC(=O)OC(C)(C)C)C(C)(C)C)C(=O)NS(=O)(=O)c1c(C)nn(C)c1Cl [Compound 1004] | 100 to 1000 | 100 to 1000 |
| C=C[C@@H]1C[C@]1(NC(=O)[C@@H]1C[C@@H](Oc2nccc3cc(OC)ccc23)CN1C(=O)[C@@H](NC(=O)OC(C)(C)C)C(C)(C)C)C(=O)NS(=O)(=O)c1cn(C)cn1 [Compound 1005] | 1000 to 10000 | 1000 to 10000 |
| C=C[C@@H]1C[C@]1(NC(=O)[C@@H]1C[C@@H](Oc2nccc3cc(OC)ccc23)CN1C(=O)[C@@H](NC(=O)OC(C)(C)C)C(C)(C)C)C(=O)NS(=O)(=O)c1c(C)noc1C [Compound 1012] | – | 1000 to 10000 |
| C=C[C@@H]1C[C@]1(NC(=O)[C@@H]1C[C@@H](Oc2nccc3cc(OC)ccc23)CN1C(=O)[C@@H](NC(=O)OC(C)(C)C)C(C)(C)C)C(=O)NS(=O)(=O)c1ccccc1 [Compound 1007] | 100 to 1000 | < 100 |
| C=C[C@@H]1C[C@]1(NC(=O)[C@@H]1C[C@@H](Oc2nccc3cc(OC)ccc23)CN1C(=O)[C@@H](NC(=O)OC(C)(C)C)C(C)(C)C)C(=O)NS(=O)(=O)c1cccs1 [Compound 1006] | 100 to 1000 | < 100 |
